The supplement of paper PMC9912026

System: A375_aEGFR2
Test: pERK immunofluorescence normalised to no-drug reference (=1); higher = more ERK phosphorylation (less pathway inhibition)
Conditions: drug treatment time 24 h, EGF time 8 h
Protocol: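 A375 CRISPRa-EGFR (A375_aEGFR2) or HT29 cells were treated with two-drug dose combinations (vemurafenib, LY3009120, cobimetinib) for 24 h, then stimulated with EGF (100 ng/mL) or mock medium for 8 h. pERK (T202/Y204) was measured by immunofluorescence as the cytosolic population average, normalised to an untreated no-drug reference of the block (=1). Averages of 2 technical replicates. A375 in 5% FBS, HT29 in 10% FBS.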

CNc1ncc2cc(-c3cc(NC(=O)NCCC(C)(C)C)c(F)cc3C)c(C)nc2n1 + O=C(c1ccc(F)c(F)c1Nc1ccc(I)cc1F)N1CC(O)([C@@H]2CCCCN2)C1 [Cobimetinib]
pERK immunofluorescence normalised
Conditions | drug A concentration 0 µM | drug A concentration 0.0001 µM | drug A concentration 0.000316228 µM | drug A concentration 0.001 µM | drug A concentration 0.00316228 µM | drug A concentration 0.01 µM
drug B concentration 0 µM, EGF 0 ng/mL | – | 1.07 | 1.05 | 1.02 | 0.921 | 0.728
drug B concentration 0 µM, EGF 100 ng/mL | – | 0.987 | 1.03 | 1 | 0.917 | 0.795
drug B concentration 31.62 pM, EGF 0 ng/mL | 1.06 | 0.993 | 0.999 | 0.985 | 0.894 | 0.777
drug B concentration 31.62 pM, EGF 100 ng/mL | 0.985 | 0.987 | 1.03 | 0.999 | 0.899 | 0.778
drug B concentration 0.0001 µM, EGF 0 ng/mL | 1.04 | 1.05 | 1.02 | 1 | 0.938 | 0.787
drug B concentration 0.0001 µM, EGF 100 ng/mL | 0.985 | 1.01 | 1.03 | 0.937 | 0.957 | 0.8
drug B concentration 0.000316228 µM, EGF 0 ng/mL | 1.08 | 1.01 | 1.01 | 1.02 | 0.912 | 0.745
drug B concentration 0.000316228 µM, EGF 100 ng/mL | 0.976 | 0.946 | 0.998 | 0.923 | 0.905 | 0.753
drug B concentration 0.001 µM, EGF 0 ng/mL | 0.997 | 0.966 | 0.945 | 0.892 | 0.817 | 0.613
drug B concentration 0.001 µM, EGF 100 ng/mL | 0.964 | 0.944 | 0.935 | 0.935 | 0.849 | 0.674
drug B concentration 0.00316228 µM, EGF 0 ng/mL | 0.841 | 0.816 | 0.829 | 0.807 | 0.675 | 0.495
drug B concentration 0.00316228 µM, EGF 100 ng/mL | 0.85 | 0.848 | 0.882 | 0.832 | 0.753 | 0.622
drug B concentration 0.01 µM, EGF 0 ng/mL | 0.546 | 0.498 | 0.517 | 0.498 | 0.432 | –
drug B concentration 0.01 µM, EGF 100 ng/mL | 0.726 | 0.692 | 0.722 | 0.709 | 0.595 | –
drug B concentration 0.0316228 µM, EGF 0 ng/mL | 0.29 | 0.284 | 0.298 | 0.288 | 0.275 | –
drug B concentration 0.0316228 µM, EGF 100 ng/mL | 0.564 | 0.606 | 0.611 | 0.558 | 0.439 | –
drug B concentration 0.1 µM, EGF 0 ng/mL | 0.243 | 0.242 | 0.245 | 0.238 | 0.237 | –
drug B concentration 0.1 µM, EGF 100 ng/mL | 0.541 | 0.545 | 0.533 | 0.444 | 0.309 | –
drug B concentration 0.316228 µM, EGF 0 ng/mL | 0.235 | 0.234 | 0.233 | 0.233 | 0.231 | –
drug B concentration 0.316228 µM, EGF 100 ng/mL | 0.428 | 0.416 | 0.352 | 0.258 | 0.225 | –
drug B concentration 1 µM, EGF 0 ng/mL | 0.235 | 0.233 | 0.233 | 0.232 | 0.232 | –
drug B concentration 1 µM, EGF 100 ng/mL | 0.278 | 0.259 | 0.234 | 0.218 | 0.214 | –
